# Measured values: patent US20250018046A1, “COMPOUNDS FOR TARGETING DEGRADATION OF IRAK4 PROTEINS” (BIOGEN MA INC, priority 2021, published 2025)
# Target: T1, IRAK4 (Homo sapiens, UniProt Q9NWZ3)
# T1 construct: knocking-in a HiBiT fusion tag into the C-terminal of the IRAK4 gene in 293T cells; host or cells: 293T cells, knock-in of HiBiT at the endogenous IRAK4 locus
# T1 sequence (Q9NWZ3 1-460): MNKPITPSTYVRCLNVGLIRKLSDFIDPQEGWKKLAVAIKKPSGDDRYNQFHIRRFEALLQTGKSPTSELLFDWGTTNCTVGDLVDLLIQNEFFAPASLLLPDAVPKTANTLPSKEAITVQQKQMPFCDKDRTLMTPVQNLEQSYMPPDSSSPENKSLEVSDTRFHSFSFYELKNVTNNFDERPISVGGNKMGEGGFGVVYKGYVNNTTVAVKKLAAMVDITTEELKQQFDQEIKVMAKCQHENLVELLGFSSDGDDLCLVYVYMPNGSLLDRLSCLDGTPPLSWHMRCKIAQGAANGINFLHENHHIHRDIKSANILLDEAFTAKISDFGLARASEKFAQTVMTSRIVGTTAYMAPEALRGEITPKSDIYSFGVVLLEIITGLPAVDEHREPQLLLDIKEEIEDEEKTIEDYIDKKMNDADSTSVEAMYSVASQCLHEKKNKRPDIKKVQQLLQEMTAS
# Assay: IRAK4 degradation assay using the HiBiT Method
# Format: cell-based
# Conditions: 293T cells expressing HiBiT-tagged IRAK4; 6-hour incubation; Nano-Glo HiBiT Lytic Assay luminescence
# Protocol: Selected compounds were tested in an IRAK4 degradation assay using the HiBiT Method.
# Phenol red-free Dulbecco's modified Eagle medium (DMEM) and fetal bovine serum (FBS) were purchased from Gibco (Grand Island, NY, USA). The Nano-Glo© HiBiT Lytic Assay System was purchased from Promega (Madison, WI, USA). Cell culture flasks and 384-well microplates were acquired from VWR (Radnor, PA, USA). The 293T cell line was engineered by knocking-in a HiBiT fusion tag into the C-terminal of the IRAK4 gene in 293T cells (Synthego, Redwood City, CA, USA).
# IRAK4 degradation was measured via the quantification of luminescent signals using the Nano-Glo© HiBiT Lytic Assay kit. Test compounds were added to 384-well plates in duplicate using an 11-point half-log dilution series, with the highest dose set at 10 mM. 293T cells expressing HiBiT-tagged IRAK4 were then added into 384-well plates at a cell density of 10,000 cells per well. The plates were kept at 37° C. with 5% CO2 for 6 hours. Cells that were treated only with DMSO served as the negative control; wells that contained only assay media served as the background control. After the 6-hour incubation, Nano-Glo® HiBiT Lytic Assay reagents were added to the cells. Luminescence was acquired using an EnVision® Multilabel Reader (PerkinElmer, Santa Clara, CA, USA).
row,Structure (SMILES),DC50
1,"CC(C)Oc1cc2nc([C@H]3CC[C@H](CN4CCC(c5cccc(NC6CCC(=O)NC6=O)c5)CC4)CC3)cn2cc1NC(=O)c1cccc(C(F)(F)F)n1 (stereo partly shown) [Example 39, N-[2-[4-[[4-[3-[(2,6-dioxo-3-piperidyl)amino]phenyl]-1-piperidyl]methyl]cyclohexyl]-7-isopropoxy-imidazo[1,2-a]pyridin-6-yl]-6-(trifluoromethyl)pyridine-2-carboxamide]",100 to 500 nM
2,"CC(C)Oc1cc2nc(C3CCN(CC(=O)N4CCC(c5ccc(NC6CCC(=O)NC6=O)cc5)CC4)CC3)cn2cc1NC(=O)c1ccncn1 (stereo not shown) [Example 53, N-[2-[1-[2-[4-[4-[(2,6-dioxo-3-piperidyl)amino]phenyl]-1-piperidyl]-2-oxo-ethyl]-4-piperidyl]-7-isopropoxy-imidazo[1,2-a]pyridin-6-yl]pyrimidine-4-carboxamide]",100 to 500 nM
3,"CC(C)Oc1cc2nc([C@H]3CC[C@H](CN(C)C4CCN(Cc5cccc(NC6CCC(=O)NC6=O)c5)CC4)CC3)cn2cc1NC(=O)c1cccc(C(F)(F)F)n1 (stereo partly shown) [Example 46, N-[2-[4-[[[1-[[3-[(2,6-dioxo-3-piperidyl)amino]phenyl]methyl]-4-piperidyl]-methyl-amino]methyl]cyclohexyl]-7-isopropoxy-imidazo[1,2-a]pyridin-6-yl]-6-(trifluoromethyl) pyridine-2-carboxamide]",> 1000 nM
4,"CC(C)Oc1cc2nc(C3CCN(C(=O)CN4CCC(c5ccc(C6CCC(=O)NC6=O)cc5)CC4)C3)cn2cc1NC(=O)c1cccc(C(F)(F)F)n1 (stereo not shown) [Example 75, N-[2-[1-[2-[4-[4-(2,6-dioxo-3-piperidyl)phenyl]-1-piperidyl]acetyl]pyrrolidin-3-yl]-7-isopropoxy-imidazo[1,2-a]pyridin-6-yl]-6-(trifluoromethyl)pyridine-2-carboxamide]",10 to 100 nM
5,"CC(C)Oc1cc2nc([C@H]3CC[C@H](CN(C)C4CCN(c5cccc(NC6CCC(=O)NC6=O)c5)CC4)CC3)cn2cc1NC(=O)c1cccc(C(F)(F)F)n1 (stereo partly shown) [Example 44, N-[2-[4-[[[1-[3-[(2,6-dioxo-3-piperidyl)amino]phenyl]-4-piperidyl]-methyl-amino]methyl]cyclohexyl]-7-isopropoxy-imidazo[1,2-a]pyridin-6-yl]-6-(trifluoromethyl) pyridine-2-carboxamide]",100 to 500 nM
6,"CC(C)Oc1cc2nc(C3CCN(C(=O)CN4CCN(c5ccc(OC6CCC(=O)NC6=O)cc5)CC4)CC3)cn2cc1NC(=O)c1cccc(C(F)(F)F)n1 (stereo not shown) [Example 6, N-[2-[1-[2-[4-[4-[(2,6-dioxo-3-piperidyl)oxy]phenyl]piperazin-1-yl]acetyl]-4-piperidyl]-7-isopropoxy-imidazo[1,2-a]pyridin-6-yl]-6-(trifluoromethyl)pyridine-2-carboxamide]",100 to 500 nM
7,"CC(C)Oc1cc2nc(C3CCN(CC(=O)N4CCC(c5ccc(NC6CCC(=O)NC6=O)cc5)CC4)CC3)cn2cc1NC(=O)c1cnn2cccnc12 (stereo not shown) [Example 57, N-(2-(1-(2-(4-(4-((2,6-dioxopiperidin-3-yl)amino)phenyl)piperidin-1-yl)-2-oxoethyl)piperidin-4-yl)-7-isopropoxyimidazo[1,2-a]pyridin-6-yl)pyrazolo[1,5-a]pyrimidine-3-carboxamide]",< 10 nM
8,"CC(C)Oc1cc2nc(C3CCN(C(=O)C4CCN(C(=O)c5ccc(OC6CCC(=O)NC6=O)cc5)CC4)CC3)cn2cc1NC(=O)c1cccc(C(F)(F)F)n1 (stereo not shown) [Example 84, N-[2-[1-[1-[4-[(2,6-dioxo-3-piperidyl)oxy]benzoyl]piperidine-4-carbonyl]-4-piperidyl]-7-isopropoxy-imidazo[1,2-a]pyridin-6-yl]-6-(trifluoromethyl)pyridine-2-carboxamide]",500 to 1000 nM
9,"CC(C)Oc1cc2nc([C@H](Cc3ccccc3)NC(=O)CN3CCC(c4ccc(C5CCC(=O)NC5=O)cc4)CC3)cn2cc1NC(=O)c1cccc(C(F)(F)F)n1 (stereo partly drawn) [Example 73, N-[2-[(1S)-1-[[2-[4-[4-(2,6-dioxo-3-piperidyl)phenyl]-1-piperidyl]acetyl]amino]-2-phenyl-ethyl]-7-isopropoxy-imidazo[1,2-a]pyridin-6-yl]-6-(trifluoromethyl)pyridine-2-carboxamide]",100 to 500 nM
10,"CC(C)Oc1cc2nc(C3CCN(CCC(=O)N4CCC(c5ccc(NC6CCC(=O)NC6=O)cc5)CC4)CC3)cn2cc1NC(=O)c1cccc(C(F)(F)F)n1 (stereo not shown) [Example 30, N-[2-[1-[3-[4-[4-[(2,6-dioxo-3-piperidyl)amino]phenyl]-1-piperidyl]-3-oxo-propyl]-4-piperidyl]-7-isopropoxy-imidazo[1,2-a]pyridin-6-yl]-6-(trifluoromethyl)pyridine-2-carboxamide]",100 to 500 nM
11,"CC(C)Oc1cc2nc(C3CCN(C(=O)CN4CCN(c5ccc(NC6CCC(=O)NC6=O)cc5)CC4)CC3)cn2cc1NC(=O)c1cccc(C(F)(F)F)n1 (stereo not shown) [Example 10, N-[2-[1-[2-[4-[4-[(2,6-dioxo-3-piperidyl)amino]phenyl]piperazin-1-yl]acetyl]-4-piperidyl]-7-isopropoxy-imidazo[1,2-a]pyridin-6-yl]-6-(trifluoromethyl)pyridine-2-carboxamide]",100 to 500 nM
12,"CC(C)Oc1cc2nc(C3CCN(CCN4CCN(c5ccc(C6CCC(=O)NC6=O)cc5)CC4)CC3)cn2cc1NC(=O)c1cccc(C(F)(F)F)n1 (stereo not shown) [Example 65, N-[2-[1-[2-[4-[4-(2,6-dioxo-3-piperidyl)phenyl]piperazin-1-yl]ethyl]-4-piperidyl]-7-isopropoxy-imidazo[1,2-a]pyridin-6-yl]-6-(trifluoromethyl)pyridine-2-carboxamide]",10 to 100 nM
13,"CC(C)Oc1cc2nc(C3CCN(CCN4CCC(c5ccc(CN6CCC(=O)NC6=O)cc5)CC4)CC3)cn2cc1NC(=O)c1cccc(C(F)(F)F)n1 [Example 62, N-[2-[1-[2-[4-[4-[(2,4-dioxohexahydropyrimidin-1-yl)methyl]phenyl]-1-piperidyl]ethyl]-4-piperidyl]-7-isopropoxy-imidazo[1,2-a]pyridin-6-yl]-6-(trifluoromethyl)pyridine-2-carboxamide]",100 to 500 nM
14,"CC(C)Oc1cc2nc(C3CCN(C(=O)C4CC5(CCCN5C(=O)c5ccc(OC6CCC(=O)NC6=O)cc5)C4)CC3)cn2cc1NC(=O)c1cccc(C(F)(F)F)n1 (stereo not shown) [Example 80, N-[2-[1-[5-[4-[(2,6-dioxo-3-piperidyl)oxy]benzoyl]-5-azaspiro[3.4]octane-2-carbonyl]-4-piperidyl]-7-isopropoxy-imidazo[1,2-a]pyridin-6-yl]-6-(trifluoromethyl)pyridine-2-carboxamide]",100 to 500 nM
15,"CC(C)Oc1cc2nc(C3CCN(CC(=O)N4CCC(c5cccc(NC6CCC(=O)NC6=O)c5F)CC4)CC3)cn2cc1NC(=O)c1cccc(C(F)(F)F)n1 (stereo not shown) [Example 13, N-[2-[1-[2-[4-[3-[(2,6-dioxo-3-piperidyl)amino]-2-fluoro-phenyl]-1-piperidyl]-2-oxo-ethyl]-4-piperidyl]-7-isopropoxy-imidazo[1,2-a]pyridin-6-yl]-6-(trifluoromethyl)pyridine-2-carboxamide]",100 to 500 nM
16,"CC(C)Oc1cc2nc(C3CCN(CCCCCCc4ccc(NC5CCC(=O)NC5=O)cc4)CC3)cn2cc1NC(=O)c1cccc(C(F)(F)F)n1 (stereo not shown) [Example 70, N-[2-[1-[6-[4-[(2,6-dioxo-3-piperidyl)amino]phenyl]hexyl]-4-piperidyl]-7-isopropoxy-imidazo[1,2-a]pyridin-6-yl]-6-(trifluoromethyl)pyridine-2-carboxamide]",100 to 500 nM
